Source: patent publication US7390836B2, “Small molecules used to increase cell death” (priority 1999, dated 2008)

Assays:
Bcl-xL = molecular target: T1, Bcl-xL (Homo sapiens, UniProt Q07817, DEL45-84); test: NMR titration of Bcl-xL; type: binding; conditions: for relative order of affinities, NMR titrations: rank order
T1 construct: His6 (C); made in house
Protocol: To verify this conclusion, NMR titrations of Bcl-xL with BH3I-1s were performed and their Ki values were determined (FIG. 4). […] The BH3I-1s Ki values obtained by the NMR approach agree with the results of both pulldown and SELDI analyses. Therefore, the order of affinities of BH3Is is: BH312′>BH3I-2>BH3I-2″>BH3I-1>BH3I-1′>BH3I-1″>BH3I-1′″.
NMR titration was used to examine whether BH3Iinteracts with the binding pocket of Bcl-xL in a manner similar to Bak BH3 peptide (Hajduk et al., Science 278:497-499, 1997).
Next, changes in Bcl-xL structure upon addition of increasing amounts of BH3Is were determined. Each of the BH3Is induced significant changes in the Bcl-xL structure. The compounds targeted the hydrophobic cleft formed by the BH1, BH2, and BH3 domains on the surface of the Bcl-xL protein, and primarily bound to the area formed by BH1 and BH2 domains.

[1] = molecular target: T2, U2AF35 / U2AF65 interaction (Homo sapiens, UniProt Q01081); test: Pulldown of splicing factors (specificity control); type: binding; conditions: selectivity control
T2 construct: made in house; host or cells: U2AF65: TNT wheat germ lysate (Promega)
T2 sequence (Q01081 1-240): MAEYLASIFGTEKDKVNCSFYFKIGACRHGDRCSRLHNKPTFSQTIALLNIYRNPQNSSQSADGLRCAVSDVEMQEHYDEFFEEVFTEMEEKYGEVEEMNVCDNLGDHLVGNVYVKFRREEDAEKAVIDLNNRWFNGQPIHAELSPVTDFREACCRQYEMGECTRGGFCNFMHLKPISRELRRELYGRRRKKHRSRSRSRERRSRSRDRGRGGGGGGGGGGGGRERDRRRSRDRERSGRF
Protocol: Next, it was determined whether BH3Is could disrupt the heterodimerization of Bcl-xL with pro-apoptotic proteins from the Bcl-2 family, such as truncated Bid (tBid). Truncation of Bid by caspase-8 activates Bid and dramatically increases its affinity towards anti-apoptotic Bcl-2 family members (Li et al., Cell 94:491-501, 1998). To perform this study, in vitro translation of tBid or U2AF^65 (control) was performed using TNT® Coupled Reticulocyte and Wheat Germ Lysate Systems (Promega) respectively. Bcl-xL, U2AF^35 (control) or corresponding amounts of original Ni-NTA agarose beads (blank) were pre-incubated with the BH3 inhibitors or peptide in 100 μl of PBS for 30 min at 25° C. Then 1 μl of ^35S-labeled tBID or U2AF^65 was added and incubation was continued for 2 hr at 4° C. The samples were subjected to SDS-PAGE, coomassie blue staining and autoradiography.
To determine the specificity of BH3Is, their ability to inhibit other protein-protein interactions was tested using the pulldown assay described above and the splicing factors U2AF^35 and U2AF^65 (Zhang et al, Proc. Natl. Acad. Sci. USA 89:8769-73, 1992). […] BH3Is (80 μM) also had no effect on the interaction between the Apaf-1 CARD domain fragment and caspase-9 in the SELDI assay.

Jurkat cells = test: Caspase activation with fluorogenic substrates; type: cell-based; conditions: for caspase-3-like activity (DEVD.amc) / caspase-9-like activity (LEHD.amc): BH3I-1 100 μM, BH3I-2 50 μM; for time of maximum activation of both caspases: after addition of the BH3I
Protocol: (§1) FIG. 6F is a graph showing the time course of caspase activation in Jurkat cells, as assayed using a QuantiPak kit (Biomol). The cells were treated with 100 μM of BH3I-1 (triangles) or 50 μM of BH3I-2 (squares) for 2, 6, 12, or 24 hr. A fluorescence based assay of caspase-3 (Ac-DEVD-AMC) activity was then performed. The numbers represent relative AMC fluorescence in each sample compared to the value obtained with untreated Jurkat cells incubated for 24 hours, set at 1. Standard deviation values are also shown.
as §1, with “6G” for “6F”, “12” for “12,”, “caspase-9 (Ac-LEHD-AMC)” for “caspase-3 (Ac-DEVD-AMC)”
FIG. 6H is a graph showing the comparison of caspase-9 (Ac-LEHD-AMC) (open bars) and caspase-8 (Ac-IETD-AMC) (closed bars) activation 12 and 24 hr after treatment of Jurkat cells with BH3Is.
To evaluate the activation of caspases by BH3Is, the activation of caspases in the presence of these compounds was measured using the preferred caspase-3 and caspase-9 fluorogenic substrates DEVD.amc and LEHD.amc. […] Activation of both caspases followed an essentially identical time course and reached a maximum 12 hours after addition of the BH3I. If BH3Is induce apoptosis through a mitochondrial pathway, caspase-9 should be activated before caspase-8, since the latter is a mediator of the death receptor pathway at the plasma membrane (Cryns et al., Genes Dev. 12:1551-70, 1998 [published erratum appears in Genes Dev. 13:371, 1999]). Therefore, the levels of caspase-9 and caspase-8 activity were compared by measuring LEHD.amc/IETD.amc cleavage activities.

[2] = tested on: HeLa cells that stably overexpress human BCL-XL; test: Cell death by ATP levels in Bcl-xL overexpressing cells after zVAD-fmk pretreatment; type: cell-based; conditions: zVAD-fmk 100 μM pretreatment, 48 or 72 hours
Protocol: In another study, HeLa cells that stably overexpress human BCL-XL, and are therefore more resistant to cell death, were pretreated with zVAD-fmk (100 μM) for 1 hour, as described above. Each of the chemical compounds BH3I-1, BH3I-1′, and BH3I-2 from the ChemBridge library was then added to the media of the cells of three separate samples. After 48 or 72 hours of exposure of the cells to zVAD-fmk and the chemical compound, the level of cell death was measured for each sample, by measuring cellular ATP levels.

T1 sequence (Q07817 with tags, fused parts or gaps DEL45-84 limits assumed): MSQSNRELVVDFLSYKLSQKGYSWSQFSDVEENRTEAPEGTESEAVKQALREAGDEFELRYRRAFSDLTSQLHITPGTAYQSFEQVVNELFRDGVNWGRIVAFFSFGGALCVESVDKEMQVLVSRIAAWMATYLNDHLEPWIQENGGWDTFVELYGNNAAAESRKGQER

Structure (SMILES)	relative order of affinities, NMR titrations (Bcl-xL)	NOE magnetization transfer to Bcl-xL residues Y65 and F107 (Bcl-xL)	NMR derived Ki value, compared (Bcl-xL; compared with fluorescence polarization Ki of BH3I-2)	effect on interaction between splicing factors [1]	caspase-3-like activity (DEVD.amc) (Jurkat cells)	caspase-9-like activity (LEHD.amc) (Jurkat cells)	time of maximum activation of both caspases (Jurkat cells)	cellular ATP levels [2]
CC(C)C(C(=O)O)N1C(=O)/C(=C/c2ccccc2)SC1=S (centres unmarked) [BH3I-1″]	BH3I-1>BH3I-1′>BH3I-1″>BH3I-1′″	–	–	–	–	–	–	–
CC(C)C(C(=O)O)N1C(=O)C(=Cc2ccc(Br)cc2)SC1=S (stereo in doubt) [BH3I-1]	BH3I-1>BH3I-1′>BH3I-1″>BH3I-1′″	direct contact between BH3I-1 and these residues	lower than the fluorescence polarization assay derived Ki value of BH3I-2	Neither BH3I-1 nor BH3I-2 affected the interaction	increase	increase	12 h	cellular ATP levels decreased
O=C(Nc1cc(S(=O)(=O)c2ccc(Cl)cc2)ccc1Cl)c1cc(Cl)cc(Br)c1O [BH3I-2]	–	–	–	Neither BH3I-1 nor BH3I-2 affected the interaction	increase	increase	12 h	cellular ATP levels decreased
